Assay results as given in the Bradley open melting point set (2014).

SMILES | melting point
CC(=O)Oc1ccccc1C(=O)O [2-Acetoxybenzoic acid] | 139 °C
NCCS(=O)(=O)O [2-Aminoethanesulfonic acid] | 300 °C
C=C(CC1c2ccccc2C(=O)N1Cc1ccccc1)c1ccccc1 (stereo not given) [2-Benzyl-3-(2-phenyl-2-propenyl)isoindolin-1-one] | 70.5 °C
CSC(SC)=C(C#N)C(N)=O [2-Cyano-3,3-bis(methylsulfanyl)acrylamide] | 102 °C
CCOC(C)(C)C [2-Ethoxy-2-methylpropane] | -94 °C
CCOCCO [2-Ethoxyethanol] | -90 °C
CCCCCCCCCCCCCCCCC1CO1 (stereo not given) [2-Hexadecyloxirane] | 26 °C
OCCSSCCO [2-Hydroxyethyl Disulfide] | 26 °C
CC(C)(C)I [2-Iodo-2-methylpropane] | -38 °C
Oc1ccccc1I [2-Iodophenol] | 38.5 °C
Cc1ccc([N+](=O)[O-])cc1N [2-Methyl-5-nitroaniline] | 108 °C
CCCCCCC(C)C [2-Methyloctane] | -80 °C
CC(C)(C)N [2-Methylpropan-2-amine] | -67 °C
O=[N+]([O-])c1cc(Cl)ccc1O [2-Nitro-4-chlorophenol] | 89 °C
CC(=O)OCC(=O)c1ccccc1 [2-acetoxy_acetophenone] | 89 °C
C=CCc1ccccc1O [2-allylphenol] | -6 °C
CC(C)(C)N [2-amino-2-methylpropane] | -68 °C

Second part, the molecule after the results:

melting point | SMILES
149 °C | O=C(O)c1ccccc1Br [2-Bromobenzoic acid]
135 °C | O=C(c1ccccc1)C(O)c1ccccc1 (stereo not given) [2-Hydroxy-1,2-diphenylethanone]
162 °C | O=C(O)c1ccccc1I [2-Iodobenzoic acid]
28 °C | COc1ccccc1O [2-Methoxyphenol]
206 °C | Cc1c(C(=O)O)cc([N+](=O)[O-])cc1[N+](=O)[O-] [2-Methyl-3,5-dinitrobenzoic acid]
122 °C | Oc1ccc2ccccc2c1 [2-Naphthol]
147 °C | O=C(O)c1ccccc1[N+](=O)[O-] [2-Nitrobenzoic acid]
159 °C | O=C1OC(c2ccccc2)=NC1=Cc1ccco1 [2-Oxazolin-5-one, 4-furfurylidene-2-phenyl-]
143 °C | O=C1OC(c2ccccc2)=NC1=Cc1ccc(-c2ccccc2)o1 [2-Phenyl-4-(5-phenyl-furan-2-ylmethylene)-4H-oxazol-5-one]
-27 °C | OCCc1ccccc1 [2-Phenyl-Ethanol]
129 °C | O=C1C=C(NCCc2ccccn2)C(=O)c2ccccc21 [2-[(2-pyridin-2-ylethyl)amino]naphthalene-1,4-dione]
200 °C | CC(=O)Nc1ccc([N+](=O)[O-])cn1 [2-acetamido-5-nitropyridine]
203 °C | CC(=O)Nc1nccs1 [2-acetamidothiazole]
46 °C | CC(=O)c1ccc(Cl)s1 [2-acetyl-5-chlorothiophene]
54 °C | CC(=O)c1ccc2ccccc2c1 [2-acetylnaphthalene]
47 °C | CCc1ccc(C)nc1N [2-amino-3-ethyl-6-methylpyridine]
170 °C | Nc1ncccc1O [2-amino-3-hydroxypyridine]
182 °C | Nc1cc(F)c(F)cc1C(=O)O [2-amino-4,5-difluorobenzoic acid]
184 °C | Nc1nc(-c2ccc(Br)cc2)cs1 [2-amino-4-(4-bromophenyl)thiazole]
132 °C | CCSc1nnc(N)s1 [2-amino-5-ethylthio-1,3,4-thiadiazole]
248 °C | Nc1nc2ccc([N+](=O)[O-])cc2s1 [2-amino-6-nitrobenzothiazole]
-104 °C | CCC(C)N (stereo not given) [2-aminobutane]
129 °C | O=C(O)c1ccccc1C(=O)c1ccccc1 [2-benzoylbenzoic acid]
